# Columns and labels:
# Experiment in all cases: area under dose-response curve of surviving fraction (unscaled, Aref=0) (surviving fraction x log10(nM)); higher = more resistant
# Conditions in all cases: exposure time: 5 days; dose range 0.5-1000 nM
# FLUOROURACIL = compound: O=c1[nH]cc(F)c(=O)[nH]1 [FLUOROURACIL]
# Outline: (§1)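 Tumour cell lines in 384-well plates were exposed for five days to eight inhibitor concentrations from 0.5 to 1000 nM. Viability was read by CellTiter-Glo luminescence, normalised to DMSO-only wells, in three screens per line. Dose-response survival curves were fitted to surviving fractions by 3-parameter logistic regression in the drc R package. Area under the curve is the unscaled activity area (Aref = 0) over log10 dose.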
# LAPATINIB = compound: CS(=O)(=O)CCNCc1ccc(-c2ccc3ncnc(Nc4ccc(OCc5cccc(F)c5)c(Cl)c4)c3c2)o1 [LAPATINIB]
# Outline: as §1
# 17-AAG = compound: C=CCNC1=C2C[C@@H](C)C[C@H](OC)[C@H](O)[C@@H](C)/C=C(\C)[C@H](OC(N)=O)[C@@H](OC)/C=C\C=C(/C)C(=O)NC(=CC1=O)C2=O [17-AAG]
# Outline: as §1
# RESVERATROL = compound: Oc1ccc(/C=C/c2cc(O)cc(O)c2)cc1 [RESVERATROL]
# Outline: as §1
# FLAVOPIRIDOL = compound: CN1CC[C@H](c2c(O)cc(O)c3c(=O)cc(-c4ccccc4Cl)oc23)[C@H](O)C1 [FLAVOPIRIDOL]
# Outline: as §1
# DOXORUBICIN = compound: COc1cccc2c1C(=O)c1c(O)c3c(c(O)c1C2=O)C[C@@](O)(C(=O)CO)C[C@@H]3O[C@H]1C[C@H](N)[C@H](O)[C@H](C)O1 [DOXORUBICIN]
# Outline: as §1
# SALINOMYCIN = compound: CC[C@@H](C(=O)[C@@H](C)[C@@H](O)[C@H](C)[C@@H]1O[C@@H]([C@@H](CC)C(=O)O)CC[C@@H]1C)[C@H]1O[C@]2(C=C[C@@H](O)[C@]3(CC[C@@](C)([C@H]4CC[C@](O)(CC)[C@H](C)O4)O3)O2)[C@H](C)C[C@@H]1C [SALINOMYCIN]
# Outline: as §1
# 2-METHOXYESTRADIOL = compound: COc1cc2c(cc1O)CC[C@@H]1[C@@H]2CC[C@]2(C)[C@@H](O)CC[C@@H]12 [2-METHOXYESTRADIOL]
# Outline: as §1
# ABT-737 = compound: CN(C)CC[C@H](CSc1ccccc1)Nc1ccc(S(=O)(=O)NC(=O)c2ccc(N3CCN(Cc4ccccc4-c4ccc(Cl)cc4)CC3)cc2)cc1[N+](=O)[O-] [ABT-737]
# Outline: as §1
# NUTLIN3 = compound: COc1ccc(C2=N[C@@H](c3ccc(Cl)cc3)[C@@H](c3ccc(Cl)cc3)N2C(=O)N2CCNC(=O)C2)c(OC(C)C)c1 [NUTLIN3]
# Outline: as §1
# [1] = compound: CCN(CC)CCCCNc1ncc2cc(-c3cc(OC)cc(OC)c3)c(NC(=O)NC(C)(C)C)nc2n1
# Outline: as §1
# DECITABINE = compound: Nc1ncn([C@H]2C[C@H](O)[C@@H](CO)O2)c(=O)n1 [DECITABINE]
# Outline: as §1
# VISMODEGIB = compound: CS(=O)(=O)c1ccc(C(=O)Nc2ccc(Cl)c(-c3ccccn3)c2)c(Cl)c1 [VISMODEGIB]
# Outline: as §1
test system,measurement,setting,value
HS57T LUNG,area under dose-response curve,FLUOROURACIL,3.24
same,area under dose-response curve,LAPATINIB,3.42
same,area under dose-response curve,17-AAG,1.35
same,area under dose-response curve,RESVERATROL,3.35
same,area under dose-response curve,FLAVOPIRIDOL,2.07
same,area under dose-response curve,DOXORUBICIN,1.22
same,area under dose-response curve,SALINOMYCIN,2.57
same,area under dose-response curve,2-METHOXYESTRADIOL,2.78
same,area under dose-response curve,ABT-737,3.45
same,area under dose-response curve,NUTLIN3,3.4
same,area under dose-response curve,[1],2.66
same,area under dose-response curve,DECITABINE,3.05
same,area under dose-response curve,VISMODEGIB,3.29

# From the supplement of paper PMC6045584
